The record followed here is PubChem BioAssay AID248 (DTP/NCI, 2004).

Values joined by “and” are separate entries in the source; they are usually repeats but may differ in a detail not shown here. Equal values may be shown once. Toxic doses and inconclusive results are not listed.

This assay concerns L1210 leukemia ip in BDF1 mice, survival T/C. As to the kind of experiment: NCI In Vivo Anticancer Drug Screen. Data for tumor model L1210 Leukemia (intraperitoneal) in B6D2F1 (BDF1) mice. To be noted: endpoint: mean survival time, higher = longer survival. The gist of the method:
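Tumor was transplanted into mice, which were then dosed with test compound or vehicle alone. Survival was recorded for each group, and the treated figure was expressed relative to the control figure.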

The mark [1] stands for this setting: dose: 100.0 mg/kg/injection, schedule: Q04DX003 (ip), vehicle: Klucel (hydroxypropylcellulose) (HPC).
[2] abbreviates: dose: 200.0 mg/kg/injection, schedule: Q04DX003 (ip), vehicle: Klucel (hydroxypropylcellulose) (HPC).
Setting [3] is: dose: 400.0 mg/kg/injection, schedule: Q04DX003 (ip), vehicle: Klucel (hydroxypropylcellulose) (HPC).
Setting [4] is: dose: 100.0 mg/kg/injection, schedule: Q01DX009 (ip), vehicle: acetone.
Where [5] appears, read: dose: 200.0 mg/kg/injection, schedule: Q01DX009 (ip), vehicle: acetone.
Setting [6] is: dose: 100.0 mg/kg/injection, schedule: Q01DX001 (ip), vehicle: other.
The mark [7] stands for this setting: dose: 200.0 mg/kg/injection, schedule: Q01DX001 (ip), vehicle: other.
Setting [8] is: dose: 400.0 mg/kg/injection, schedule: Q01DX001 (ip), vehicle: other.
The mark [9] stands for this setting: dose: 100.0 mg/kg/injection, schedule: Q01DX009 (ip), vehicle: Klucel (hydroxypropylcellulose) (HPC).
The mark [10] stands for this setting: dose: 200.0 mg/kg/injection, schedule: Q01DX009 (ip), vehicle: Klucel (hydroxypropylcellulose) (HPC).
[11] abbreviates: dose: 400.0 mg/kg/injection, schedule: Q01DX009 (ip), vehicle: Klucel (hydroxypropylcellulose) (HPC).

As for `COC(=O)NS(=O)(=O)c1ccco1`, the T/C is 92 % of control (dose: 100.0 mg/kg/injection, schedule: Q01DX001 (ip), vehicle: Klucel (hydroxypropylcellulose) (HPC)); 100 % of control under setting [1]; 98 % of control (dose: 200.0 mg/kg/injection, schedule: Q01DX001 (ip), vehicle: Klucel (hydroxypropylcellulose) (HPC)); 106 % of control under setting [2]; 101 % of control (dose: 400.0 mg/kg/injection, schedule: Q01DX001 (ip), vehicle: Klucel (hydroxypropylcellulose) (HPC)); 89 % of control under setting [3].

For `CCCCCCC(=O)/C=C/c1ccc(Cl)c(Cl)c1`, the T/C is, setting by setting: under setting [4], 92 % of control; (dose: 100.0 mg/kg/injection, schedule: Q04DX003 (ip), vehicle: acetone) 101 % of control; under setting [5], 92 % of control; (dose: 200.0 mg/kg/injection, schedule: Q04DX003 (ip), vehicle: acetone) 93 % of control; (dose: 400.0 mg/kg/injection, schedule: Q04DX003 (ip), vehicle: acetone) 98 % of control.

For the compound `CCCCCCCCN(C(=S)NC(=O)c1ccccc1)c1ccccc1`, the T/C reads like this: under setting [1], 93 % of control; under setting [2], 89 % of control; under setting [3], 91 % of control.

In the case of `O=C(O)/C=C/[P+](c1ccccc1)(c1ccccc1)c1ccccc1`, the T/C is 101 % of control (dose: 5.0 mg/kg/injection, schedule: Q01DX001 (ip), vehicle: saline); 106 % of control (dose: 10.0 mg/kg/injection, schedule: Q01DX001 (ip), vehicle: saline); 101 % of control (dose: 20.0 mg/kg/injection, schedule: Q01DX001 (ip), vehicle: saline).

In the case of `CCCCCCCCCCCCCCCCCC[N+](CCCC)(CCCC)CCCCCCCCCCCCCCCCCC` (tested in a mixture with another compound), the T/C by setting is: under setting [6], 93 % of control; under setting [7], 90 % of control.

Regarding `CN(Cc1ccccc1)/N=N/c1nc[nH]c1C(N)=O`, the T/C reads like this: (dose: 4.0 mg/kg/injection, schedule: Q01DX009 (ip), vehicle: saline with Tween-80) 98 % of control; (dose: 8.0 mg/kg/injection, schedule: Q01DX009 (ip), vehicle: saline with Tween-80) 103 % of control; (dose: 22.0 mg/kg/injection, schedule: Q01DX009 (ip), vehicle: saline with Tween-80) 98 % of control; (dose: 25.0 mg/kg/injection, schedule: Q01DX009 (ip), vehicle: water) 122 % of control; (dose: 35.0 mg/kg/injection, schedule: Q01DX009 (ip), vehicle: saline with Tween-80) 117 % of control; (dose: 50.0 mg/kg/injection, schedule: Q01DX001 (ip), vehicle: water) 102 % of control. Also, the T/C by setting is: (dose: 50.0 mg/kg/injection, schedule: Q01DX009 (ip), vehicle: saline) 124 % of control; (dose: 50.0 mg/kg/injection, schedule: Q04DX003 (ip), vehicle: water) 105 % of control; under setting [6], 104 % of control; (dose: 100.0 mg/kg/injection, schedule: Q01DX001 (ip), vehicle: water) 108 % of control; under setting [4], 181 % of control; (dose: 100.0 mg/kg/injection, schedule: Q01DX009 (ip), vehicle: water) 171 % of control and 175 % of control. The T/C was 102 % of control (dose: 100.0 mg/kg/injection, schedule: Q04DX003 (ip), vehicle: other); 108 % of control under setting [7]; 113 % of control (dose: 200.0 mg/kg/injection, schedule: Q01DX001 (ip), vehicle: water); 150 % of control under setting [5]; 176 % of control (dose: 200.0 mg/kg/injection, schedule: Q01DX009 (ip), vehicle: saline with Tween-80); 106 % of control and 113 % of control (dose: 200.0 mg/kg/injection, schedule: Q01DX009 (ip), vehicle: water). The T/C was 122 % of control (dose: 200.0 mg/kg/injection, schedule: Q04DX003 (ip), vehicle: other); 112 % of control under setting [8]; 87 % of control (dose: 400.0 mg/kg/injection, schedule: Q01DX009 (ip), vehicle: acetone); 155 % of control (dose: 400.0 mg/kg/injection, schedule: Q04DX003 (ip), vehicle: other).

For `CC(=O)Nc1cc(C)c(C=O)cc1C`, the T/C (dose: 100.0 mg/kg/injection, schedule: Q01DX001 (ip), vehicle: carboxymethylcellulose (CMC)) was 88 % of control; the T/C (dose: 200.0 mg/kg/injection, schedule: Q01DX001 (ip), vehicle: carboxymethylcellulose (CMC)) was 108 % of control; the T/C (dose: 400.0 mg/kg/injection, schedule: Q01DX001 (ip), vehicle: carboxymethylcellulose (CMC)) was 92 % of control.

As to `CCCCCCCCCCCCCCCCCC(=O)N/N=C/C(=C\c1ccccc1)CCCCCC`, the T/C reads like this: under setting [9], 90 % of control; under setting [10], 98 % of control; under setting [11], 93 % of control.

Regarding `O=[N+]([O-])c1cc(Cl)[n+]([O-])c(Cl)c1`, the T/C (dose: 75.0 mg/kg/injection, schedule: Q01DX001 (ip), vehicle: carboxymethylcellulose (CMC)) was 101 % of control.

For `CCOC(=O)C1C(=O)CC(=O)C(C(=O)OCC)C1c1ccc(O)cc1` (configuration not stated), the T/C by setting is: under setting [9], 95 % of control; under setting [1], 97 % of control; under setting [10], 98 % of control; under setting [2], 104 % of control; under setting [11], 97 % of control; under setting [3], 107 % of control.

Turning to `O=C1CCCCc2ccc([N+](=O)[O-])cc21`, the T/C is, setting by setting: (dose: 50.0 mg/kg/injection, schedule: Q01DX001 (ip), vehicle: other) 86 % of control; under setting [6], 98 % of control; under setting [7], 96 % of control; under setting [8], 88 % of control.

As to `c1ccc2cc3c(cc2c1)OCO3`, the T/C (dose: 100.0 mg/kg/injection, schedule: Q04DX002 (ip), vehicle: Klucel (hydroxypropylcellulose) (HPC)) was 110 % of control; the T/C (dose: 200.0 mg/kg/injection, schedule: Q04DX002 (ip), vehicle: Klucel (hydroxypropylcellulose) (HPC)) is 107 % of control; the T/C (dose: 400.0 mg/kg/injection, schedule: Q04DX002 (ip), vehicle: Klucel (hydroxypropylcellulose) (HPC)) was 98 % of control.

For `CCOC(=O)c1csc(C)n1`, the T/C (dose: 100.0 mg/kg/injection, schedule: Q01DX009 (ip), vehicle: saline) is 103 % of control; the T/C (dose: 100.0 mg/kg/injection, schedule: Q04DX003 (ip), vehicle: saline) is 99 % of control; the T/C (dose: 200.0 mg/kg/injection, schedule: Q01DX009 (ip), vehicle: saline) is 102 % of control; the T/C (dose: 200.0 mg/kg/injection, schedule: Q04DX003 (ip), vehicle: saline) was 96 % of control; the T/C (dose: 400.0 mg/kg/injection, schedule: Q01DX009 (ip), vehicle: saline) is 109 % of control; the T/C (dose: 400.0 mg/kg/injection, schedule: Q04DX003 (ip), vehicle: saline) was 92 % of control.
